Results as given in patent publication US20240116985A1, “STAPLED PEPTIDES AND METHODS THEREOF” (priority 2020, published 2024).

Target: T1, full-length beta-Catenin (Uniprot ID P35222) (Homo sapiens, UniProt P35222)
T1 construct: 10 nM full-length beta-Catenin (Uniprot ID P35222)
T1 sequence (P35222 1-781): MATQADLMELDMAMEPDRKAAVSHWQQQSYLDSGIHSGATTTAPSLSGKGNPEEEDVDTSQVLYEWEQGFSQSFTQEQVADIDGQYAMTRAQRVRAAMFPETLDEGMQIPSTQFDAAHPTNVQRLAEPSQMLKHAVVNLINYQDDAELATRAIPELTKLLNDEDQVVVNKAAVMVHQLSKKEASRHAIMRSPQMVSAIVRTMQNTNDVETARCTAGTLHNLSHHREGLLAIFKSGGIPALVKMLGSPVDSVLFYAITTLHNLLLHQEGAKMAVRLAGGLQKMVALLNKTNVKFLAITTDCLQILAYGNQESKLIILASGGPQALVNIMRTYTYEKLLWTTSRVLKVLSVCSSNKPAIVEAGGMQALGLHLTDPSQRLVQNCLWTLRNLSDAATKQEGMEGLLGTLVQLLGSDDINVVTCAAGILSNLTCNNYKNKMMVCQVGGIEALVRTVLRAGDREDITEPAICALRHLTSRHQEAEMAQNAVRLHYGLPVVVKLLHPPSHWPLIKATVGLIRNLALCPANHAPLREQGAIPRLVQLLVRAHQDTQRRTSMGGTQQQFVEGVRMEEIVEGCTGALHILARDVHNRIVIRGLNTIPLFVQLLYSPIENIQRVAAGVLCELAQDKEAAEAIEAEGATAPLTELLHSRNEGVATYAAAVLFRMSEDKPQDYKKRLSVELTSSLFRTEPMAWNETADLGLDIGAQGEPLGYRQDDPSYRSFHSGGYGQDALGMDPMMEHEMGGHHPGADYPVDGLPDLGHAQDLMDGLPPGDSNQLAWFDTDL
Test: Fluorescence polarization IC50 (beta-catenin / 5FAM-TCF4 10-53 competition)
Assay type: binding
Details: fluorescence polarization; read-out: beta-Catenin FP IC50

IC50 [nM]	Structure (SMILES)
164	CC(=O)N1CCC[C@]12CC=CCCCC1(CCCC=CCCCOC(=O)N3CC[C@@](C(=O)N[C@@H](Cc4ccccc4)C(=O)N[C@@H](Cc4csc5ccccc45)C(=O)N[C@@H](CCC(N)=O)C(N)=O)(C3)NC(=O)[C@H](CC(N)=O)NC(=O)[C@H](Cc3ccccc3)NC(=O)[C@H](C)NC(=O)[C@H](CCCCNC(C)C)NC(=O)[C@H](CCC(N)=O)NC(=O)[C@H](CC(=O)O)NC1=O)NC(=O)[C@H](CC1CCCCC1)NC(=O)[C@H](CC(N)=O)NC2=O (stereo partly drawn) [I-2113, Ac-PL3-Asn-Cha-B5-Asp-Gln-iPrLys-Ala-Phe-Asn-PyrS2-Phe-BztA-Gln-NH2]
29	CC(=O)N1CCC[C@]12CC=CCCCC1(CCCC=CCCCOC(=O)N3CC[C@@](C(=O)N[C@@H](Cc4ccsc4)C(=O)N[C@@H](Cc4csc5ccccc45)C(=O)N[C@@H](CCC(N)=O)C(N)=O)(C3)NC(=O)[C@H](CCO)NC(=O)[C@H](Cc3cccc(C(=O)O)c3)NC(=O)[C@H](C)NC(=O)[C@H](C)NC(=O)[C@H](Cc3ccc(O)cc3)NC(=O)[C@H](CC(=O)O)NC1=O)NC(=O)[C@H](CC(C)(C)C)NC(=O)[C@H](CC(=O)O)NC2=O (stereo partly drawn) [I-2124, Ac-PL3-Asp-Npg-B5-Asp-Tyr-Ala-Ala-3COOHF-Hse-PyrS2-3Thi-BztA-Gln-NH2]
105	CC(=O)N1CCC[C@]12CC=CCCCC1(CCCC=CCCCOC(=O)N3CC[C@@](C(=O)N[C@@H](Cc4ccsc4)C(=O)N[C@@H](Cc4csc5ccccc45)C(=O)N[C@@H](CCC(N)=O)C(N)=O)(C3)NC(=O)[C@H](CC(C)C)NC(=O)[C@H](Cc3cccc(C(=O)O)c3)NC(=O)[C@H](C)NC(=O)[C@H](C)NC(=O)[C@H](Cc3c[nH]c4ccccc34)NC(=O)[C@H](CC(=O)O)NC1=O)NC(=O)[C@H](CC(C)(C)C)NC(=O)[C@H](CC(=O)O)NC2=O (stereo partly drawn) [I-2129, Ac-PL3-Asp-Npg-B5-Asp-Trp-Ala-Ala-3COOHF-Leu-PyrS2-3Thi-BztA-Gln-NH2]
4920	CC(=O)N1CCC[C@]12CC=CCCCC1(CCCC=CCCCOC(=O)N3CC[C@@](C(=O)N[C@@H](Cc4ccsc4)C(=O)N[C@@H](Cc4csc5ccccc45)C(=O)N[C@@H](CCC(N)=O)C(N)=O)(C3)NC(=O)[C@H](CC(N)=O)NC(=O)[C@H](Cc3ccccc3)NC(=O)[C@H](C)NC(=O)[C@H](C)NC(=O)[C@H]([C@@H](C)O)NC(=O)[C@H](CC(N)=O)NC1=O)NC(=O)[C@H](CC(C)(C)C)NC(=O)[C@H](CN(CC(=O)O)CC(F)(F)F)NC2=O (stereo partly drawn) [I-2130, Ac-PL3-TfeGA-Npg-B5-Asn-Thr-Ala-Ala-Phe-Asn-PyrS2-3Thi-BztA-Gln-NH2]
8750	CC(=O)N1CCC[C@]12CC=CCCCC1(CCCC=CCCCOC(=O)N3CC[C@@](C(=O)N[C@@H](Cc4ccsc4)C(=O)N[C@@H](Cc4csc5ccccc45)C(=O)N[C@@H](CCC(N)=O)C(N)=O)(C3)NC(=O)[C@H](CC(N)=O)NC(=O)[C@H](Cc3ccccc3)NC(=O)[C@H](C)NC(=O)[C@H](C)NC(=O)[C@H]([C@@H](C)O)NC(=O)[C@H](CC(N)=O)NC1=O)NC(=O)[C@H](CC(C)(C)C)NC(=O)[C@H](CCCC(=O)O)NC2=O (stereo partly drawn) [I-2133, Ac-PL3-Aad-Npg-B5-Asn-Thr-Ala-Ala-Phe-Asn-PyrS2-3Thi-BztA-Gln-NH2]
1010	CC(=O)N1CCC[C@]12CC=CCCCC1(CCCC=CCCCOC(=O)N3CC[C@@](C(=O)N[C@@H](Cc4ccsc4)C(=O)N[C@@H](Cc4csc5ccccc45)C(=O)N[C@@H](Cc4c[nH]c5ccccc45)C(N)=O)(C3)NC(=O)[C@H](CC(N)=O)NC(=O)[C@H](Cc3ccccc3)NC(=O)[C@H](C)NC(=O)[C@H](C)NC(=O)[C@H]([C@@H](C)O)NC(=O)[C@H](CC(N)=O)NC1=O)NC(=O)[C@H](CC(C)(C)C)NC(=O)[C@H](CC(=O)O)NC2=O (stereo partly drawn) [I-2138, Ac-PL3-Asp-Npg-B5-Asn-Thr-Ala-Ala-Phe-Asn-PyrS2-3Thi-BztA-Trp-NH2]
970	CC(=O)N1CCC[C@]12CC=CCCCC1(CCCC=CCCCOC(=O)N3CC[C@@](C(=O)N[C@@H](Cc4ccsc4)C(=O)N[C@@H](Cc4csc5ccccc45)C(=O)N[C@@H](Cc4c[nH]c5ccccc45)C(N)=O)(C3)NC(=O)[C@H](CC(N)=O)NC(=O)[C@H](Cc3ccccc3)NC(=O)[C@H](C)NC(=O)[C@H](C)NC(=O)[C@H]([C@@H](C)O)NC(=O)[C@H](CC(N)=O)NC1=O)NC(=O)[C@H](CC(C)(C)C)NC(=O)[C@H](CC(=O)O)NC2=O (stereo partly drawn) [I-2139, Ac-PL3-Asp-Npg-B5-Asn-Thr-Ala-Ala-Phe-Asn-PyrS2-3Thi-BztA-Trp-NH2]

Further lines, the molecule ahead of its results:

Structure (SMILES)	IC50 [nM]
CC(=O)N1CCC[C@]12CC=CCCCC1(CCCC=CCCCOC(=O)N3CC[C@@](C(=O)N[C@@H](Cc4ccccc4)C(=O)N[C@@H](Cc4csc5ccccc45)C(=O)N[C@H](C(N)=O)[C@@H](C)O)(C3)NC(=O)[C@H](CC(N)=O)NC(=O)[C@H](Cc3ccccc3)NC(=O)[C@H](C)NC(=O)[C@H](CCCCNC(C)C)NC(=O)[C@H](CCC(N)=O)NC(=O)[C@H](CC(=O)O)NC1=O)NC(=O)[C@H](CC1CCCCC1)NC(=O)[C@H](CC(N)=O)NC2=O (stereo partly drawn) [I-2112, Ac-PL3-Asn-Cha-B5-Asp-Gln-iPrLys-Ala-Phe-Asn-PyrS2-Phe-BztA-Thr-NH2]	501
CC(=O)N1CCC[C@]12CC=CCCCC1(CCCC=CCCCOC(=O)N3CC[C@@](C(=O)N[C@@H](Cc4ccsc4)C(=O)N[C@@H](Cc4csc5ccccc45)C(=O)N[C@@H](CCC(N)=O)C(N)=O)(C3)NC(=O)[C@H](CCO)NC(=O)[C@H](Cc3cccc(C(=O)O)c3)NC(=O)[C@H](C)NC(=O)[C@H](C)NC(=O)[C@H](Cc3ccc(O)cc3)NC(=O)[C@H](CC(=O)O)NC1=O)NC(=O)[C@H](CC(C)(C)C)NC(=O)[C@H](CC(=O)O)NC2=O (stereo partly drawn) [I-2125, Ac-PL3-Asp-Npg-B5-Asp-Tyr-Ala-Ala-3COOHF-Hse-PyrS2-3Thi-BztA-Gln-NH2]	26
CC(=O)N1CCC[C@]12CC=CCCCC1(CCCC=CCCCOC(=O)N3CC[C@@](C(=O)N[C@@H](Cc4ccsc4)C(=O)N[C@@H](Cc4csc5ccccc45)C(=O)N[C@@H](CCC(N)=O)C(N)=O)(C3)NC(=O)[C@H](CC(N)=O)NC(=O)[C@H](Cc3cccc(C(=O)O)c3)NC(=O)[C@H](C)NC(=O)[C@H](C)NC(=O)[C@H](Cc3c[nH]c4ccccc34)NC(=O)[C@H](CC(=O)O)NC1=O)NC(=O)[C@H](CC(C)(C)C)NC(=O)[C@H](CC(=O)O)NC2=O (stereo partly drawn) [I-2127, Ac-PL3-Asp-Npg-B5-Asp-Trp-Ala-Ala-3COOHF-Asn-PyrS2-3Thi-BztA-Gln-NH2]	36
CC(=O)N1CCC[C@]12CC=CCCCC1(CCCC=CCCCOC(=O)N3CC[C@@](C(=O)N[C@@H](Cc4ccsc4)C(=O)N[C@@H](Cc4csc5ccccc45)C(=O)N[C@@H](CCC(N)=O)C(N)=O)(C3)NC(=O)[C@H](CC(N)=O)NC(=O)[C@H](Cc3ccccc3)NC(=O)[C@H](C)NC(=O)[C@H](C)NC(=O)[C@H]([C@@H](C)O)NC(=O)[C@H](CC(N)=O)NC1=O)NC(=O)[C@H](CC(C)(C)C)NC(=O)[C@H](CN(CC(=O)O)CC(F)(F)F)NC2=O (stereo partly drawn) [I-2131, Ac-PL3-TfeGA-Npg-B5-Asn-Thr-Ala-Ala-Phe-Asn-PyrS2-3Thi-BztA-Gln-NH2]	3220
CC(=O)N1CCC[C@]12CC=CCCCC1(CCCC=CCCCOC(=O)N3CC[C@@](C(=O)N[C@@H](Cc4ccsc4)C(=O)N[C@@H](Cc4csc5ccccc45)C(=O)N[C@@H](CCC(N)=O)C(N)=O)(C3)NC(=O)[C@H](CC(N)=O)NC(=O)[C@H](Cc3ccccc3)NC(=O)[C@H](C)NC(=O)[C@H](C)NC(=O)[C@H]([C@@H](C)O)NC(=O)[C@H](CC(N)=O)NC1=O)NC(=O)[C@H](CC(C)(C)C)NC(=O)[C@H](Cc1cccc(C(=O)O)c1)NC2=O (stereo partly drawn) [I-2135, Ac-PL3-3COOHF-Npg-B5-Asn-Thr-Ala-Ala-Phe-Asn-PyrS2-3Thi-BztA-Gln-NH2]	3410
